Values of other authors in US20170333404A1, “IMPROVED FORMULATIONS OF VEMURAFENIB AND METHODS OF MAKING THE SAME” (DISPERSOL TECHNOLOGIES, LLC, priority 2014, published 2017).

Experiments:
V600E mutation in b-raf = conditions: patients with a V600E mutation in b-raf
[1] = not given; remark: listed apart in the source
melanoma = conditions: at 5 years, adjuvant treatment
[2] = tested on: BRAFV600E/K mutant advanced or malignant melanoma; conditions: Trametinib arm
[3] = compared to the crystalline form

## CCCS(=O)(=O)Nc1ccc(F)c(C(=O)c2c[nH]c3ncc(-c4ccc(Cl)cc4)cc23)c1F [vemurafenib]
Melanoma cell lines; melanoma cell lines
  programmed cell death: cause programmed cell death
Melanoma cell lines; melanoma cells without BRAF V600E/V600K mutations
  inhibition of melanoma cells: not inhibited
Advanced melanoma; group of 16 patients with advanced melanoma
  patients with reduced numbers of cancer cells: over half
Advanced melanoma; treated group vs control group
  median increased survival time over the control group: 6 months
V600E mutation in b-raf
  patients showing partial to complete regression: ~80%
BRIM-2, 132 patients
  arthralgia, patients: 58%
  photosensitivity, patients: 52%
  skin rash, patients: 52%
BRIM-2, to manage side effects
  patients in whom dose modification was necessary: 45%
[1]; at MTD of 960 mg twice a day
  patients with skin lesions that may need surgical removal: 31%
[1]; patients
  maximum tolerated dose (MTD): 960 mg twice a day

## interferon
melanoma
  increase in survival: 3%

## CC(=O)Nc1cccc(-n2c(=O)n(C3CC3)c(=O)c3c(Nc4ccc(I)cc4F)n(C)c(=O)c(C)c32)c1 [Trametinib]
[2]
  Grade 3 adverse effect: hypertension: 12%
  Grade 3 adverse effect: rash: 7%

## CCCS(=O)(=O)Nc1ccc(F)c(C(=O)c2c[nH]c3ncc(-c4ccc(Cl)cc4)cc23)c1F [amorphous form of vemurafenib, vemurafenib]
[3]
  solubility in water: improved solubility in water
